Results reported in paper PMC10550821, “Cryo-EM structures reveal native GABAA receptor assemblies and pharmacology” (Nature, 2023).

Key:
[1] = biological target: T1, GABAA receptor α1 subunit (native α1*-β2-α1-β2*-γ2 nα1-GABAAR) (Mus musculus, UniProt P22723+P62812); assay: cryo-EM structure; competitive [3H]flunitrazepam scintillation proximity assay; assay type: binding
T1 construct: gene Gabra1; main assembly alpha1/beta2/gamma2

[2] = biological target: T2, GABAA receptor α1 subunit (native α1-containing receptors, nα1-GABAARs) (Mus musculus, UniProt P22723+P62812); assay: radioligand binding, scintillation proximity assay
T2 construct: gene Gabra1; native receptor ensemble purified from mouse brain (cerebellum excluded) in nanodiscs; with GABAA receptor γ2 subunit (Gabrg2); β2 subunit (Gabrb2) in the main assembly

[3] = biological target: T3, GABAA receptor α1 subunit, as it stood in the measurement of the Kd of 8E3-GFP Fab (sample not stated) (Mus musculus (assumed; mature rat chain …, UniProt P62812); assay: not stated; dissociation constant of 8E3-GFP Fab, printed with a pointer to Extended Data Fig. 1; method and sample not told
T3 construct: GABAA receptor subunit alpha-1; the Kd may come from such a sample

Cc1ccc(-c2nc3ccc(C)cn3c2CC(=O)N(C)C)cc1 [ZOL, zolpidem]
Ki [1]: 22.9 ± 2.7 nM

CN1C(=O)CN=C(c2ccccc2F)c2cc([N+](=O)[O-])ccc21 [flunitrazepam]
Kd [2]: 6 ± 0.2 nM

B1: 8E3-GFP Fab (α1 subunit-specific Fab fragment of mouse monoclonal antibody 8E3, with 3C site, EGFP and twin-strep II tag on the heavy chain) (Fab, V domains shown)
VH: EIQLQQSGPELVKPGTSVKVSCKASGYSFTDYNMYWVKQSHGKSLEWIGYIDPYNADTTYNREFKGKATLTVDKSSSTAFMHLNSLTSEDSAVYYCARKRNNFYFDYWGQGTPLTVSS
VL: YIVMTQSPKSMSMSLGERVTLSCRASEYVGSYVSWYQQKPEQSPKLLIYGASNRYTGVPDRFAGSGSATDFTLTITSVQAEDLADYHCGQTYNYPTFGGGTKLEIK
notes: Fab heavy chain of 8E3; Fab light chain of 8E3; Both chains were expressed with an N-terminal GP64 signal peptide; also called α1-specific Fab; source: Sf9, recombinant baculovirus, secreted into the supernatant, purified (streptactin column); not shown: EGFP, C-terminal, kept; twin-strep II, C-terminal, kept
Kd [3]: 0.5 nM
